Laboratory results taken from patent US10975081B2, “Substituted fused pyrazole compounds and their use as LRRK2 inhibitors” (GlaxoSmithKline Intellectual Property Development Limited, priority 2015, dated 2021).

Key:
[1] = molecular target: LRRK2 Ser935 phosphorylation in SH-SY5Y cells over-expressing recombinant full length LRRK2 (Homo sapiens (Human), UniProt Q5S007); experiment: Recombinant cellular LRRK2 AlphaScreen assay; type: cell-based; conditions: 60 minutes, read-out: Recombinant cellular LRRK2 alphaScreen assay (pIC50) (converted)
Method in brief: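 SH-SY5Y cells transduced with BacMam full-length LRRK2 (MOI 50, 24 h) were treated 60 min at 37° C with serial dilutions (top final 10 μM). Lysates were probed by AlphaScreen using biotinylated anti-pSer935 and total-LRRK2 antibodies; dose-response fit to a sigmoidal model.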

[2] = molecular target: Full length G2019 human LRRK2 (Homo sapiens (Human), UniProt Q5S007); experiment: Full length G2019 human LRRK2 inhibition mass spectrometry assay; type: biochemical; conditions: Full length Flag-LRRK2, 25 uM LRRKtide, 2 mM ATP
Description: Mass Spectrometer Settings • LRRKtide Detection settings: Q1 mass 644.8 Da, Q3 mass 638.8, declustering potential 76 volts, collision energy 37 volts, CXP 34 volts • Phospho-LRRKtide Detection settings: Q1 mass 671.4 Da, Q3 mass 638.8, Declustering potential 76 volts, Collision energy 37 volts, CXP 34 volts. • A C4 cartridge was used and running buffers were: A (aqueous) 0.1% formic acid in water B (organic) 0.1% formic acid, 80% acetonitrile, 20% water • 5. Data was analysed using ActivityBase software (IDBS). A percent conversion from LRRKtide to Phospho-LRRKtide was calculated using the following formula: % conversion=(Phospho-LRRKtide product peak area/(Phospho-LRRKtide product peak area+LRRKtide substrate peak area))*100 2) Full Length G2019 Human LRRK2 Inhibition Mass Spectrometry Assay Insect Cell Cultures
Sf9 insect cells (Invitrogen Life Technologies, Carlsbad, Calif.) were maintained at 27° C. in SF 900 II SFM in 500-ml stationary flasks. The cells were maintained in exponential growth phase and subcultured twice per week. For larger volumes, cells were grown in 2-liter shaker flasks (Erlenmeyer, Corning) while being agitated with 120 rpm at 27° C. incubator shaker.
Human G2019 LRRK2 Plasmids Preparation
Primers Used for PCR Cloning:
• pHTBV-F: SEQ ID No: 1 • LRRK2 wt-F1: SEQ ID No: 2 • LRRK2 wt-R1: SEQ ID No: 3 • LRRK2 wt-F2: SEQ ID No: 4 • LRRK2 wt-R2: SEQ ID No: 5 • LRRK2 wt-F3: SEQ ID No: 6 • pHTBV-R: SEQ ID No: 7
The primers described above were used to amplify full length human LRRK2 (amino acids from 1-2527) with N terminal Flag tag from BioCat 116313 using high fidelity PCR polymerase KOD-Plus according to the manufacturer's instructions (KOD-211, TOYOBO). The PCR product was digested with BamHI and KpnI and ligated into BamHI and KpnI digested pHTBV1mcs3 (BioCat 127555). The sequence of the target fragment was confirmed by DNA sequencing. The construct BioCat141351 was generated by Novoprotein.
The G2019 full length Flag-LRRK2 coding sequence is SEQ ID No: 8.
The translated protein sequence for human G2019 full length LRRK2 flag tagged protein is SEQ ID No: 9.
Generation of the BacMam Virus
To generate the recombinant BacMam virus, SF9 cells were seeded in 6-well tissue culture dishes at 9×10^5 cells/well and allowed to attach for 20 min. Transfection procedure was followed using AESOP AP5911v2. Briefly, DH10Bac competent cells (10361-012, Invitrogen) were transformed by the genotypically normal human LRRK2 BacMam plasmid to generate the recombinant baculovirus DNA. The Sf9 insect cells were co-transfected with the mixture of recombinant baculovirus DNA and cellfectin (10362-100, Invitrogen). After 4 h of incubation at 27° C., the transfection media was replaced with Sf-900 III SFM medium containing 5% HI FBS (Ser. No. 10/100,147, Invitrogen). The cells were further incubated for 4 days. The infected cell culture medium containing the baculovirus (P0 virus stock) was collected and amplified by further infecting the Sf9 cells at multiplicity of infection (MOI) (pfu/cell) of 0.1.
Quantification of BacMam Viral Titre by BacPAKRapid Titer
The viral titre, measured as plaque forming unit (pfu)/ml was determined using BacPAK Papid Titer Kit (631406, Clontech) according to the manufacturer's protocol. The Sf9 cells seeded in 96-well plate with 3×10^5 cells per well were incubated with serial dilution of the viral stocks for 1 h at 27° C., 50 μl methyl cellulose overlay was added to each well followed by 43-47 h incubation. The cells were then fixed in 4% paraformaldehyde (PFA). After blocking the cells with diluted normal goat serum, Mouse anti-gp64 antibody was added to the cells. After 30 min incubation, the cells were washed with phosphate buffered saline containing 0.1% Triton-X100 (PBST) and incubated for another 30 min with goat anti-mouse antibody/HRP conjugate. This was followed by blue peroxidase substrate which detects the single infected cells and foci of infected cells by their dark blue color. […]

Full length G2019 human LRRK2, sequence (Q5S007 other isoform, or with tags, fused parts or gaps): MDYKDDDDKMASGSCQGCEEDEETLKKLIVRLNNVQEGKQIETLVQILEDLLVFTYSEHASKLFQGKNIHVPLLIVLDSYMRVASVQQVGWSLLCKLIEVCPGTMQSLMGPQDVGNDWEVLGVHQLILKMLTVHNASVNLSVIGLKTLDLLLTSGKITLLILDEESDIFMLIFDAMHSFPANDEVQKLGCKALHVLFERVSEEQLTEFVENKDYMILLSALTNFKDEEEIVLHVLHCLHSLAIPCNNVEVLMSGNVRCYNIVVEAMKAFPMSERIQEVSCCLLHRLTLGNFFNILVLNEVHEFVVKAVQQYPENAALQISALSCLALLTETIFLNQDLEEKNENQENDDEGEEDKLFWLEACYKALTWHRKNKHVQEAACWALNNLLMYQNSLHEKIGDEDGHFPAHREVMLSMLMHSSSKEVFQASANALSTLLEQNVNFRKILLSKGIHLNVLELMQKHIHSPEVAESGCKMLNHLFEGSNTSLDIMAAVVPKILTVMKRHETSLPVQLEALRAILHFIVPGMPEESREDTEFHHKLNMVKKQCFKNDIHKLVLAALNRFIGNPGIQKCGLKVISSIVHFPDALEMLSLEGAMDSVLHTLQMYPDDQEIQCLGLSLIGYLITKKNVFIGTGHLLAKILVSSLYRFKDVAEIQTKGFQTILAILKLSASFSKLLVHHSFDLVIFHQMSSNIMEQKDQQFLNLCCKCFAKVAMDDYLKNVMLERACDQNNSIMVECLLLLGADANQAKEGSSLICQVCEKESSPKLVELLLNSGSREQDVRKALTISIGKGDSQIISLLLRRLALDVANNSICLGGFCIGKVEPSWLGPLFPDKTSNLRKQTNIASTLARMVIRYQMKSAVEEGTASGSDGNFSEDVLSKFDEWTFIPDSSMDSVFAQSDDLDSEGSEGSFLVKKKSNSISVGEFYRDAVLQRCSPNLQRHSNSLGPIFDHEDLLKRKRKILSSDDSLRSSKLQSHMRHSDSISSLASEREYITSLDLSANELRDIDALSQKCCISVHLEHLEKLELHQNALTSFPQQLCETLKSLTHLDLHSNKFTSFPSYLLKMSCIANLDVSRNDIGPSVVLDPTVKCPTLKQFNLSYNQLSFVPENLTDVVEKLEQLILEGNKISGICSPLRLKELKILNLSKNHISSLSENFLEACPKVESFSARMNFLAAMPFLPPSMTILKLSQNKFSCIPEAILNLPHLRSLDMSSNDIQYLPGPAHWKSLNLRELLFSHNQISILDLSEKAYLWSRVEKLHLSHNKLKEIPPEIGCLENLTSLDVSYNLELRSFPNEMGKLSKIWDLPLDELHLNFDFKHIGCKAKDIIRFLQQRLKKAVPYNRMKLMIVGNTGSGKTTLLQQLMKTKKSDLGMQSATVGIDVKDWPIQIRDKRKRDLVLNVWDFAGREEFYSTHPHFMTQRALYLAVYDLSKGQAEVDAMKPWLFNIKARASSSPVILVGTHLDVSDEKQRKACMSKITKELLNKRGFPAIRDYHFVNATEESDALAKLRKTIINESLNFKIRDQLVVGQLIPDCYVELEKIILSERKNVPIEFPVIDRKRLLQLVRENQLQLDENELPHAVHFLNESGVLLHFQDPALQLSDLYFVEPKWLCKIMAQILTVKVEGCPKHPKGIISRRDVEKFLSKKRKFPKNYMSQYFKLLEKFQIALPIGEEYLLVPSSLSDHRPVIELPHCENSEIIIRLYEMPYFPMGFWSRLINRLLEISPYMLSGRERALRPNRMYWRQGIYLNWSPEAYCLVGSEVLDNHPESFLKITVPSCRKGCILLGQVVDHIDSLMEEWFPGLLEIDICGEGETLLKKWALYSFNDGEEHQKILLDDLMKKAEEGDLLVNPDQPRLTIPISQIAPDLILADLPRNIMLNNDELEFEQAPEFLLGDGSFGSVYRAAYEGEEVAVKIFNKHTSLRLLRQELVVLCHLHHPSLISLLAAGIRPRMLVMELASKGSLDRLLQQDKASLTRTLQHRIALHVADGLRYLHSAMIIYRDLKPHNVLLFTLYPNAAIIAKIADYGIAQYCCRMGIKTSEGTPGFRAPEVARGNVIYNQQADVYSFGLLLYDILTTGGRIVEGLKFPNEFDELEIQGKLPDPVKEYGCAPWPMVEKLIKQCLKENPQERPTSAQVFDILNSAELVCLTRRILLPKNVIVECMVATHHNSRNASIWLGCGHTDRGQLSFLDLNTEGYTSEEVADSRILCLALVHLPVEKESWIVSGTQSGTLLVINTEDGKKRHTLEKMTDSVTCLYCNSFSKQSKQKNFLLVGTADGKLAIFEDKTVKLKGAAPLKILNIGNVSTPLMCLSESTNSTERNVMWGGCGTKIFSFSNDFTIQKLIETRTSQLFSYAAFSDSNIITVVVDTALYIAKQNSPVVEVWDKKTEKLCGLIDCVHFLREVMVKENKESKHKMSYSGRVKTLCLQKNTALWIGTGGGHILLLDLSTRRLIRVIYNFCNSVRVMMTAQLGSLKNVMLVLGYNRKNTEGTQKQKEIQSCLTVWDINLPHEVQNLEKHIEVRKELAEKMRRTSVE
LRRK2 Ser935 phosphorylation in SH-SY5Y cells over-expressing recombinant full length LRRK2, sequence (Q5S007 whole entry): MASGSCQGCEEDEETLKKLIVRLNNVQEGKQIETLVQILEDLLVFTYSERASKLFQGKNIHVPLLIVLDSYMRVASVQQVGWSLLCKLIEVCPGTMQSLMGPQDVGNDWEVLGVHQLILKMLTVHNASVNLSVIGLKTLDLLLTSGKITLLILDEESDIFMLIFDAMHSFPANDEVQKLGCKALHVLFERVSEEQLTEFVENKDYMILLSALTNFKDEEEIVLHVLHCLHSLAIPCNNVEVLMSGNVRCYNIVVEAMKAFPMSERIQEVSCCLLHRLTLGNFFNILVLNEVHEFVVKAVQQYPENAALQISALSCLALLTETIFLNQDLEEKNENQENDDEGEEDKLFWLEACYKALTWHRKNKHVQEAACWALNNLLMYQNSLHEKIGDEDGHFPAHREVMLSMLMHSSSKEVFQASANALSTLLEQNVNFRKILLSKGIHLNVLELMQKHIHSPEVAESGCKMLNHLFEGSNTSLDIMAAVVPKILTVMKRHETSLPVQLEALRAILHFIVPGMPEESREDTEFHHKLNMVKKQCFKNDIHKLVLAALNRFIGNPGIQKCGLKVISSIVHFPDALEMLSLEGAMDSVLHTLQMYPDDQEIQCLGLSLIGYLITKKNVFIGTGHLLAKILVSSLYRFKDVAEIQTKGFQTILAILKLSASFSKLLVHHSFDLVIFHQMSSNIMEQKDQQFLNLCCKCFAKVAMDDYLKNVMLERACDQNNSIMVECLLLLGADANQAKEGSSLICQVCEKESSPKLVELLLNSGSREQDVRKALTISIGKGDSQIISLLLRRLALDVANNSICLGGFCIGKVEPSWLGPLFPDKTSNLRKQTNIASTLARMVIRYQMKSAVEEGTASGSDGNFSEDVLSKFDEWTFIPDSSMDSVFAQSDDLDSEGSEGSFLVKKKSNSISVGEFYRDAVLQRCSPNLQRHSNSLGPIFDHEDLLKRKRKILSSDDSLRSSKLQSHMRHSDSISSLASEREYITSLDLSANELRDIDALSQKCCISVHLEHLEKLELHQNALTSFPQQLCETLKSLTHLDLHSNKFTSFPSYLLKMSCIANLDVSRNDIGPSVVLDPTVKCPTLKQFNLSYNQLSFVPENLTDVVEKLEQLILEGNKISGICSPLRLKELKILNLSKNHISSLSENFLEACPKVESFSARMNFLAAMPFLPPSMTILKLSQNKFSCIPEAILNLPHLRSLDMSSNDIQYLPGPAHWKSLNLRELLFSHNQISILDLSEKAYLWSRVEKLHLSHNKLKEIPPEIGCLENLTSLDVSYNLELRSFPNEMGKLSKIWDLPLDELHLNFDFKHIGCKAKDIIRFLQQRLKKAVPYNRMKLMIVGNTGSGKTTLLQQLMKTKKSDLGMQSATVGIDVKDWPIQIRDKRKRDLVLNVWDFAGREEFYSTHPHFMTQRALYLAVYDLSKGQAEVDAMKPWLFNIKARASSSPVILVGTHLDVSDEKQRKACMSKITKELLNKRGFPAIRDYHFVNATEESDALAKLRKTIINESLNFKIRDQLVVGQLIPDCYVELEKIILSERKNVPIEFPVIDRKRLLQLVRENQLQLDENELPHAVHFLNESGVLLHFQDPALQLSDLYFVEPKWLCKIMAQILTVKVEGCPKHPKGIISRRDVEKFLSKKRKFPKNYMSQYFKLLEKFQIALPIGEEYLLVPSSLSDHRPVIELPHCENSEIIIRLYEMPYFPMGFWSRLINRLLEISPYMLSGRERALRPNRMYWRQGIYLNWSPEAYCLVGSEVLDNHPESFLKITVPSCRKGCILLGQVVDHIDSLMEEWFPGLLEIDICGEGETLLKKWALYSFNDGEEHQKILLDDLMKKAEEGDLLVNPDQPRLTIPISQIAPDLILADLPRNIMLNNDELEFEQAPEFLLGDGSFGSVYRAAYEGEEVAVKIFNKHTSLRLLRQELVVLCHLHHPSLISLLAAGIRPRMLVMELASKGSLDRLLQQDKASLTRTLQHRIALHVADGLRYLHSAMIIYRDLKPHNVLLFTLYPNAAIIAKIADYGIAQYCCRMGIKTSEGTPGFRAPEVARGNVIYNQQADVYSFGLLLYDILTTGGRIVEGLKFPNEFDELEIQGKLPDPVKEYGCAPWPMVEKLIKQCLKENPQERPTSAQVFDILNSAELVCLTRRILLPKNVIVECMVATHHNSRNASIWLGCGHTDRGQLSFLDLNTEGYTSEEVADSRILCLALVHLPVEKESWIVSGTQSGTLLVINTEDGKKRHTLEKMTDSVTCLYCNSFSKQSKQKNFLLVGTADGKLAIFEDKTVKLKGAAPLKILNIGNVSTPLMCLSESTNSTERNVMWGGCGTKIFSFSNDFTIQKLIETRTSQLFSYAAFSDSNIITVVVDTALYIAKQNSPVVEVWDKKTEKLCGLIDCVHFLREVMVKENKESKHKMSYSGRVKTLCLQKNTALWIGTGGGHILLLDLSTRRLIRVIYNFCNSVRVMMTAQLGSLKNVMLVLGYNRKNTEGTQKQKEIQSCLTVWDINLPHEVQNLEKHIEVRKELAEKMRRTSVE

Row | IC50 [1] | Full length G2019 human LRRK2 Inhibition mass spectrometry assay (pIC50) [2] | SMILES
1 | 63.1 nM | 7.9 | Cc1nc(N2CCO[C@H](CO)C2)cc(-n2ncc3cc(C)c(C4CCN(C5COC5)CC4)cc32)n1 [Example E183, (S)-(4-(2-Methyl-6-(5-methyl-6-(1-(oxetan-3-yl)piperidin-4-yl)-1H-indazol-1-yl)pyrimidin-4-yl)morpholin-2-yl)methanol]
2 | 50.1 nM | 7.7 | COc1nc(N2CCOCC2)cc(-n2ncc3cc(C)c(C4CCNCC4)cc32)n1.Cl [Example E205, 4-(2-Methoxy-6-(5-methyl-6-(piperidin-4-yl)-1H-indazol-1-yl)pyrimidin-4-yl)morpholine]

Second part, the compound before the results:

Row | SMILES | IC50 [1] | Full length G2019 human LRRK2 Inhibition mass spectrometry assay (pIC50) [2]
3 | Cc1nc(N2CCO[C@@H](CO)C2)cc(-n2ncc3cc(C)c(C4CCNCC4)cc32)n1 [Example E188, (R)-(4-(2-Methyl-6-(5-methyl-6-(piperidin-4-yl)-1H-indazol-1-yl)pyrimidin-4-yl)morpholin-2-yl)methanol] | 79.4 nM | 7.6
4 | Cc1nc(N2CCO[C@H](CO)C2)cc(-n2ncc3cc(Cl)c(C4CCN(C5COC5)CC4)cc32)n1 [Example E208, (S)-(4-(6-(5-Chloro-6-(1-(oxetan-3-yl)piperidin-4-yl)-1H-indazol-1-yl)-2-methylpyrimidin-4-yl)morpholin-2-yl)methanol] | 39.8 nM | 7.7
5 | Cc1nc(N2CCO[C@@H](CO)C2)cc(-n2ncc3cc(C)c(C4CCOCC4)cc32)n1 [Example E239, (R)-(4-(2-Methyl-6-(5-methyl-6-(tetrahydro-2H-pyran-4-yl)-1H-indazol-1-yl)pyrimidin-4-yl)morpholin-2-yl)methanol] | 158 nM | 7.9
